Reference: ChEMBL document CHEMBL1157111, “Oridamycins A and B, anti-Saprolegnia parasitica indolosesquiterpenes isolated from Streptomyces sp. KS84” (2010)
≈ marks a conversion by molar mass, not a printed value. Calls of active or inactive are those of the source. The calls are words filed in the database; no cut-off is given here.

Legend:
Phoma = experiment: Antifungal activity against Phoma CCF3818 assessed as inhibition of hyphae elongation after 24 hrs; assay type: functional; conditions: CCF3818, 24 h
Saprolegnia parasitica = experiment: Antifungal activity against Saprolegnia parasitica assessed as inhibition of hyphae elongation after 24 hrs; assay type: functional
Saccharomyces cerevisiae = experiment: Antifungal activity against Saccharomyces cerevisiae at 1000 ug/ml after 24 hrs; assay type: functional, organism-based

Structure (SMILES) | MIC (Phoma) [µg/mL] | MIC (Saprolegnia parasitica) [µg/mL] | MIC (Saccharomyces cerevisiae)
C[C@@H]1C[C@@H]([C@H](O)CC2CC(=O)NC(=O)C2)C(=O)[C@@H](C)C1 [CYCLOHEXIMIDE] | 25 (≈ 88.9 µM) | – | –
C[C@]1(C(=O)O)[C@@H](O)CC[C@]2(C)c3cc4c(cc3CC[C@@H]12)[nH]c1ccccc14 [ORIDAMYCIN A] | 242 (≈ 666 µM) | 3 (≈ 8.25 µM) | inactive
